Measurements from publication PMC12040169 (PLOS Biology, 2025).

experiment: in vitro; conditions: human, hela cells, % viability

| Structure (SMILES) | viability at 28.5 h, 10 µM [%] |
| --- | --- |
| c1cnc2[nH]c(C3CCCC3)c(CN3CCOCC3)c2c1 [CBK285337] | 77.5 |
| COc1ccccc1-c1cnc2[nH]c(=O)n([C@@H](C)c3ccccc3)c2n1 [CBK064717] | 93.3 |
| CCc1nnc(CN(CC2CCCO2)C2CCC(C)CC2)n1C (centres unmarked) [CBK304475] | 106 |
| Cc1cccc(CCNC(=O)c2cccn(CC(=O)N(C)C3CCCCC3)c2=O)c1 [CBK286113] | 104 |
| COc1cc(OC)cc(-c2[nH][nH]c(=O)c2CCN)c1 [CBK288414] | 110 |
| CCOC(=O)c1[nH]c2ccccc2c1NC(=O)Cc1c(Cl)cccc1Cl [CBK160132] | 95.6 |
| Cc1cc(C)c(C)c(S(=O)(=O)N2CCN(c3ncnc4sc(C)c(C)c34)CC2)c1C [CBK265297] | 90.2 |
| Clc1cc(Nc2ccc3[nH]ccc3c2)n2nccc2n1 [CBK037009] | 84.7 |
| O=C(O)[C@@H]1CCCN1c1nc(O)cc(C(F)(F)F)n1 [CBK002865] | 81.3 |
| COCCCN(Cc1ccccn1)Cc1cc(F)ccc1F [CBK282950] | 108 |
| Cc1cc(C)c(S(=O)(=O)Nc2ccc(S(=O)(=O)Nc3ccc(Cl)cc3Cl)cc2)c(C)c1 [CBK266022] | 109 |
| O=C1NCCc2c1[nH]c1ccccc21 [CBK101624] | 65.5 |
| O=S(=O)(Nc1ccc2[nH]ccc2c1)c1cc(C(F)(F)F)cc(C(F)(F)F)c1 [CBK156330] | 102 |
| COc1ccc(CCNC(=O)c2cnc3scc(C)n3c2=O)cc1 [CBK287291] | 103 |
| CC(CCc1ccccc1)NC(=O)C(C)Sc1nnc(-c2cccs2)n1C1CC1 (centres unmarked) [CBK297131] | 89.5 |
| Cc1nc(C)c(-c2csc(CC(C)n3cc(Cl)cn3)n2)o1 (centres unmarked) [CBK304710] | 106 |
| OCc1ccc(-c2cncc(-c3ccc(O)cc3)n2)cc1 [CBK123792] | 91.4 |
| CCCCc1ccc(S(=O)(=O)n2ccc3c(N4CCNCC4)cccc32)cc1 [CBK003744C] | 78.7 |
| CCc1ocnc1C(=O)NC1CCCN(Cc2ccccc2F)C1 (centres unmarked) [CBK306924] | 104 |
| COc1cc(OC)nc(NC(=O)CN2CCN(c3ccc(F)cc3)CC2)n1 [CBK267259] | 96.5 |
| O=C(Nc1ccc(Cc2ccncc2)cc1)c1ccc(-c2cc3ccccc3oc2=O)cc1 [CBK268952] | 121 |
| COC(=O)CNC(=O)c1ccc(S(=O)(=O)N2CCOCC2)cc1 [CBK264873] | 109 |

| Structure (SMILES) | viability at 28.5 h, 10 µM [%] |
| --- | --- |
| O=C(c1ccccc1)c1ccc(S(=O)(=O)N2CCCN(Cc3cc(F)c(F)c(F)c3)CC2)cc1 [CBK062777] | 91.2 |
| Cc1ccc(C)c(C2CCCN2C(=O)c2ccc(=O)n(CC(=O)Nc3ccc(F)cc3)c2)c1 (centres unmarked) [CBK286495] | 93.4 |
| COc1ccc(/C=C/C(=O)C2CC2)c(C(=O)O)c1OC [CBK286639] | 97 |
| CC(=O)N1CCN(c2nc3ccccc3s2)CC1 [CBK287362] | 95 |
| FC(F)(F)c1cc(/C=C/c2cccs2)n[nH]1 [CBK020924] | 92.1 |
| COc1ccc(CCN(C(C)=O)C2CC(=O)N(c3ccccc3)C2=O)cc1OC (centres unmarked) [CBK262349] | 89.5 |
| Cc1ccc(CN(CCCn2ccnc2)Cc2cccnc2)o1 [CBK283100] | 106 |
| COc1ccc(OC)c2sc(NC(=O)c3ccc(Br)s3)nc12 [CBK287400] | 93.7 |
| O=C(Nc1ccc(Cn2cncn2)cc1)C1CC2C=CC1C21CC1 (centres unmarked) [CBK281399] | 88.2 |
| CCN1C(=O)COC[C@@H]1[C@H](O)c1ccc(NC(=O)Cc2ccc(OC)cc2)cc1 [CBK289676] | 90.2 |
| CC(=O)N1C[C@H]2CCCN(S(=O)(=O)c3ccc(F)cc3)[C@H]2C1 [CBK285283] | 88.8 |
| CN1CCN(c2ccc(-c3cc(Nc4cccc(OCc5ccccc5)c4)ncn3)cn2)CC1 [CBK090918] | 113 |
| O=C(CN1C(=O)CSc2ccccc21)Nc1ccccc1C(=O)N1CCOCC1 [CBK267343] | 104 |
| Cc1ncsc1CCOc1nc2ccccc2nc1C(F)(F)F [CBK115802] | 95.2 |
| Cc1nc2ccccc2c(=O)n1Cc1cccnc1 [CBK288092] | 94.3 |
| N=C1/C(=C/c2cn(Cc3ccccc3)c3ccccc23)C(=O)N=C2SC(COc3ccccc3)=NN12 [CBK264150] | 114 |
| Cc1ccccc1-c1ocnc1C(=O)NCc1ccco1 [CBK282408] | 84.5 |
| CN(CCC1CCOCC1)c1nc2c(c(=O)[nH]1)Cc1ccccc1OC2 [CBK306622] | 96.2 |
| CCc1nn(CC(=O)N2CCCC2)c(=O)c2cc3sccc3n12 [CBK284028] | 85.8 |
| COc1cccc(C2CC(=O)Nc3c2c(=O)nc(SC)n3C)c1 (centres unmarked) [CBK307546] | 104 |
| O=c1[nH]c(N2CCC3(CC2)OCCO3)nc2c(-c3ccccc3Cl)csc12 [CBK291128] | 114 |
| C=CCn1c(SCC(=O)N2CCN(c3ccccc3)CC2)nnc1-c1ccc(N)cc1 [CBK267956] | 99.8 |

| Structure (SMILES) | viability at 28.5 h, 10 µM [%] |
| --- | --- |
| CCOC(=O)N1CCC(NS(=O)(=O)c2ccc3c(c2)oc(=O)n3C)CC1 [CBK304666] | 84.5 |
| CCNC(=O)Nc1cc2ccccc2c(-c2cccnc2)n1 [CBK073787] | 82.3 |
| Cc1cnc(CNC(=O)c2ccc3nc[nH]c3c2)cn1 [CBK153318] | 88.4 |
| O=C(Nc1cccc(Br)c1)/C(=C\c1cccnc1)NC(=O)c1ccccc1 [CBK261450] | 85.8 |
| CCN1CCC[C@@H]1CNC(=O)c1cc(Cl)nc(OC)c1 [CBK174692] | 88.3 |
| Cc1ccc(S(=O)(=O)N(CC(=O)N/N=C\c2ccc3c(c2)OCO3)c2cccc3cccnc23)cc1 [CBK262478] | 101 |
| O=C(/C=C/c1cccnc1)Nc1ccccc1N1CCNCC1 [CBK034136T] | 102 |
| COc1ccc([N+](=O)[O-])cc1NC(=O)C1(c2ccc(OC)c(OC)c2)CCOCC1 [CBK266243] | 98.2 |
| O=S(=O)(Nc1ccc2ncccc2c1)c1ccc(OC(F)(F)F)cc1 [CBK045339] | 99.7 |
| Cc1noc(C)c1CC(=O)NCC(C)(C)N1CCCCC1 [CBK281863] | 90.3 |
| O=C(N1CCC(c2ccncc2)CC1)C1(c2ccccc2)CC1 [CBK285480] | 102 |
| O=C(c1ccc(F)cc1)C1CCN(Cc2cccnc2)CC1 [CBK149118] | 101 |
| CN(CCN1CCCCC1)C(=O)Cn1ccnc1-c1ccccc1 [CBK281900] | 91.3 |
| CCCNC(=O)c1ccc(C)c(S(=O)(=O)Nc2ccc(C)cc2C)c1 [CBK269084] | 88.8 |
| Fc1ccc(CN2CCC(n3cnc4cccnc43)CC2)cc1 [CBK283580] | 98.2 |
| N#Cc1ccc(-n2nc(-c3ccccc3)c3ccccc3c2=O)c([N+](=O)[O-])c1 [CBK132567] | 96.6 |
| CCOC(=O)c1sc(Nc2nc(C)cc(OC)n2)nc1C [CBK264822] | 108 |
| COc1cc(-c2nc(NC(=O)C(C)C)cc3ccccc23)cc(OC)c1OC [CBK085741] | 106 |
| COc1cc2c(cc1NS(=O)(=O)N1CCCCC1)oc1ccccc12 [CBK268355] | 85.8 |
| CC(C)Nc1nccnc1SCc1ccc(Cl)c(Cl)c1 [CBK103657] | 89.8 |
| O=c1c2cc(Cl)ccc2sc2ncccc12 [CBK008118] | 97.4 |
| CC1CCCCC12NC(=O)N(Cc1csc(-c3cccs3)n1)C2=O (centres unmarked) [CBK305829] | 98.4 |

| Structure (SMILES) | viability at 28.5 h, 10 µM [%] |
| --- | --- |
| O=C1/C(=C/c2ccc(OCc3cccc([N+](=O)[O-])c3)cc2)SC(=S)N1CCc1ccccc1 [CBK264641] | 92.6 |
| CCc1nc2ccc(C(=O)Nc3cccc(NS(C)(=O)=O)c3)cn2c1N(C)CCCc1ccccc1 [CBK146670] | 101 |
| O=C(Cn1c(-c2ccc(F)cc2)cc2cccnc21)N1CCOCC1 [CBK285383] | 94.8 |
| Fc1cccc(Cl)c1CN1CNC(=S)NC1 [CBK006480] | 88.7 |
| Cc1cccc(NC(=S)NCCc2ccc(S(N)(=O)=O)cc2)c1C [CBK264889] | 86.5 |
| Cc1cc(C)cc(CC(C)Cc2nc3ccccc3[nH]2)c1 (centres unmarked) [CBK262432] | 92.3 |
| Cc1csc(Sc2nccc(C(F)(F)F)n2)n1 [CBK093770] | 91.9 |
| c1ccc(Oc2cccc(CN3CCOCC3)c2)cc1 [CBK261870] | 95.3 |
| O=C(Nc1sc2c(c1C(=O)O)CCCC2)c1cc2ccccc2o1 [CBK264551] | 91 |
| O=C(c1ccco1)N1CCN(c2cncc(-c3cccc4cccnc34)n2)CC1 [CBK037339] | 96.9 |
| O=C(Nc1ccccc1)NC(N1CCOCC1)C(Cl)(Cl)Cl (centres unmarked) [CBK261293] | 103 |
| O=c1[nH]c(=O)c2cc(S(=O)(=O)N3CCCC(CN4CCCC4)C3)ccc2[nH]1 (centres unmarked) [CBK286392] | 88.8 |
| Cn1ccc2cc(NS(=O)(=O)c3ccc4[nH]c(=O)[nH]c(=O)c4c3)ccc21 [CBK286364] | 95.4 |
| CC#CC1CCCC2N(c3ccccc3)CCN12 (centres unmarked) [CBK028191] | 119 |
| CCOc1cc([N+](=O)[O-])cc(C=O)c1OC(C)C(=O)O (centres unmarked) [CBK264642] | 89.6 |
| Cc1noc(C)c1NC(=O)c1ccc2nccnc2c1 [CBK200221] | 84.1 |
| O=C(O)C1C2CCC(O2)C1C(=O)N1CCN(Cc2ccc(Cl)cc2)CC1 (centres unmarked) [CBK286943] | 97.5 |
| CCn1ncc2c1CCCC2NC1CCN(c2ccccc2)C1=O (centres unmarked) [CBK305144] | 93.6 |
| CC1(C(=O)NS(=O)(=O)c2cccc(-c3nnco3)c2)CC1 [CBK304683] | 106 |
| N#Cc1c(C(F)(F)F)cc(-c2ccc(Cl)cc2)nc1SCC(=O)O [CBK131885] | 97.5 |

same assay, conditions: human, hela cells, % viability, bulk resorufin, single well

| Structure (SMILES) | viability at 28.5 h, 10 µM [%] |
| --- | --- |
| COc1ccc(CCN2C(=O)NC(=O)/C(=C\c3c(C)[nH]c4ccccc34)C2=O)cc1OC [CBK265368] | 81.6 |
| Cc1[nH]c2c(Cl)cc(Cl)cc2c1CCN [CBK070893] | 103 |
| CCOC(=O)N1CCC2(CC1)Oc1ccc(-c3ccc(OC)cc3OC)cc1O2 [CBK091467] | 99.7 |
